These results are taken from ChEMBL document CHEMBL1123608, “In vivo antitumor activity of 6-benzyl-1,3-benzodioxole derivatives against the P388, L1210, B16, and M5076 murine models” (1987).

In test [1] the test system is Mus musculus. As to the kind of experiment: The percent increase in life span on P388 cells which were inoculated intraperitoneally in CD2F1 mice at 240 mg/kg dose placed at ranking order 1. The class given is functional. As to conditions: P388, ip, route intraperitoneal.
The test system of test [2] is Mus musculus. As to the kind of experiment: Percent increase in life span (ILS) was measured on P388 cells which were inoculated intraperitoneally in CD2F1 mice. Format: functional.
For test [3], the system named is Mus musculus. As to the kind of experiment: The percent increase in life span on P388 cells which were inoculated intraperitoneally in CD2F1 mice at 100 mg/kg dose placed at ranking order 2. Format: functional. Particulars: P388, ip, route intraperitoneal.
For test [4], the system named is Mus musculus. The test is described as follows: In vivo antitumor activity against the B16 melanoma cell line expressed as percent increase in life span at 1 mg/kg dose. Format: functional.
For test [5], the system named is Mus musculus. As to the kind of experiment: In vivo antitumor activity against the L1210 leukemia cell line expressed as percent increase in life span; IA means inactive. The class given is functional, organism-based.
For test [6], the system named is Mus musculus. As to the kind of experiment: In vivo antitumor activity against the M5076 reticulum cell sarcoma expressed as percent increase in life span at 4 mg/kg dose. Format: functional.
In test [7] the test system is Mus musculus. As to the kind of experiment: In vivo antitumor activity against the B16 melanoma cell line expressed as percent increase in life span; IA means inactive. The class given is functional, organism-based.
Test [8] concerns Mus musculus. The test is described as follows: Percent increase in life span (ILS) was measured on P388 cells which were inoculated intraperitoneally in CD2F1 mice at 8 mg/kg. The class given is functional. Particulars: P388, ip, route intraperitoneal.
The subject of test [9] is Mus musculus. The test is described as follows: In vivo antitumor activity against the B16 melanoma cell line expressed as percent increase in life span at 10 mg/kg dose. The class given is functional.
Test [10] concerns Mus musculus. As to the kind of experiment: In vivo antitumor activity against the B16 melanoma cell line expressed as percent increase in life span at 8 mg/kg dose. Format: functional.
Test [11] concerns Mus musculus. As to the kind of experiment: In vivo antitumor activity against the L1210 leukemia cell line expressed as percent increase in life span at 4 mg/kg dose. The class given is functional.
The subject of test [12] is Mus musculus. The test is described as follows: In vivo antitumor activity against the L1210 leukemia cell line expressed as percent increase in life span at 8 mg/kg dose. The class given is functional.
The test system of test [13] is Mus musculus. As to the kind of experiment: In vivo antitumor activity against the M5076 reticulum cell sarcoma expressed as percent increase in life span at 32 mg/kg dose. Format: functional.
Test [14] concerns Mus musculus. As to the kind of experiment: Percent increase in life span (ILS) was measured on P388 cells which were inoculated intraperitoneally in CD2F1 mice at 16 mg/kg. Format: functional. As to conditions: P388, ip, route intraperitoneal.
Test [15] has as its system Mus musculus. As to the kind of experiment: In vivo antitumor activity against the B16 melanoma cell line determined as number of cured out of the number tested at 10 mg/kg dose ( out of 10 mice). Format: functional.
Test [16] deals with Mus musculus. As to the kind of experiment: In vivo antitumor activity against the B16 melanoma cell line determined as number of cured out of the number tested at 8 mg/kg dose ( out of 6 mice). Format: functional.
In test [17] the test system is Mus musculus. The test is described as follows: In vivo antitumor activity against the L1210 leukemia cell line determined as number of cured out of the number tested at 8 mg/kg dose ( out of 8 mice). The class given is functional.
Test [18] deals with Mus musculus. The test is described as follows: In vivo antitumor activity against the L1210 leukemia cell line determined as number of cured out of the number tested at 4 mg/kg dose ( out of 10 mice). The class given is functional.
Test [19] is filed under the species Mus musculus. As to the kind of experiment: P388 activity determined as number of cured out of the number tested in 6 CD2F1 mice. The class given is functional.
Test [20] in a line: Ability to inhibit the dibutyryl-cAMP-induced change of an immature glioma cell to a mature, differentiated astrocyte by in vitro astrocytoma assay at 0.1 ug/mL dose (Experiment #2); value may range from 0 to 5. The class given is functional, Mus musculus.
Test [21] in a line: Ability to inhibit the dibutyryl-cAMP-induced change of an immature glioma cell to a mature, differentiated astrocyte by in vitro astrocytoma assay at 0.1 ug/mL dose (Experiment #1); value may range from 0 to 5. The class given is functional, Mus musculus.
Test [22] is described as follows: Ability to inhibit the dibutyryl-cAMP-induced change of an immature glioma cell to a mature, differentiated astrocyte by in vitro astrocytoma assay at 10 ug/mL dose (Experiment #1); value may range from 91 to up. The class given is functional, Mus musculus.
Test [23] is described as follows: Ability to inhibit the dibutyryl-cAMP-induced change of an immature glioma cell to a mature, differentiated astrocyte by in vitro astrocytoma assay at 10 ug/mL dose (Experiment #2); value may range from 91 to up. The class given is functional, Mus musculus.
The nature of test [24]: Ability to inhibit the dibutyryl-cAMP-induced change of an immature glioma cell to a mature, differentiated astrocyte by in vitro astrocytoma assay at 1 ug/mL dose (Experiment #1); value may range from 51 to 70. Format: functional, Mus musculus.
Test [25] can be described thus: Ability to inhibit the dibutyryl-cAMP-induced change of an immature glioma cell to a mature, differentiated astrocyte by in vitro astrocytoma assay at 1 ug/mL dose (Experiment #2); value may range from 51 to 70. Format: functional, Mus musculus.

Active and inactive are the calls of the source. No cut-off for these calls is given here. Where only a bound is given, the exact number is not on record here.

As to `CCCOc1cc2c(cc1C(C)c1ccc(OCC)cc1)OCO2` (configuration not stated), in the test with Mus musculus [1], the ILS at 240 mg/kg came to 41%. Also, in the test with Mus musculus [2], the ILS turned out to be 41%. In the test on Mus musculus [3], this molecule had an ILS at 100 mg/kg of 26%.

In the test on Mus musculus [4], `COc1cc([C@@H]2c3cc4c(cc3[C@H](O)[C@H]3COC(=O)[C@H]23)OCO4)cc(OC)c1OC` [PODOFILOX] gave an ILS at 1 mg/kg of 28%. The ILS entry with Mus musculus [5] and with Mus musculus [7] was “inactive” throughout. Moreover, the ILS at 4 mg/kg with Mus musculus [6] was determined as 46%. The molecule also had an ILS at 8 mg/kg with Mus musculus [8] of 52%.

`O=c1[nH]cc(F)c(=O)[nH]1` [FLUOROURACIL]: the ILS with Mus musculus [2] came to 73%.

In the test on Mus musculus [9], `COc1cc([C@@H]2c3cc4c(cc3[C@@H](O[C@@H]3O[C@@H]5CO[C@@H](C)O[C@H]5[C@H](O)[C@H]3O)[C@H]3COC(=O)[C@H]23)OCO4)cc(OC)c1O` [ETOPOSIDE] gave an ILS at 10 mg/kg greater than 185%. In addition, the figures for the ILS at 8 mg/kg in the test on Mus musculus [10] and in the test with Mus musculus [12] were greater than 176% and greater than 511%, respectively. The molecule further had an ILS at 4 mg/kg in the test on Mus musculus [11] of 118%. In the test with Mus musculus [13] (Mus musculus, M5076, dose 32 mg/kg), this molecule displayed an increase in life span (ILS) at 32 mg/kg of 87%. Moreover, the increase in lifespan (ILS) in the test with Mus musculus [13] (dose 32 mg/kg) is recorded as 72%. Moreover, the increase in lifespan (ILS) at 16 mg/kg in the test on Mus musculus [14] was determined as 219%. In addition, the No. of cures is listed as 6 in the test on Mus musculus [15]; 3 in the test on Mus musculus [16]; 4 in the test on Mus musculus [17]; 2 with Mus musculus [18]; 3 in the test filed under Mus musculus [19].

For `COc1cc2c(c(OC)c1OC)-c1ccc(OC)c(=O)cc1[C@@H](NC(C)=O)CC2` [COLCHICINE], the Astrocyte reversal was determined as 0% in test [20]; 0% in test [21]; 91% in test [22]; 91% in test [23]; 51% in test [24]; 51% in [25].

For orientation: ILS means the gain in survival time of treated over control animals, in per cent.
